The structures appear in SMILES notation. “Also recorded” adds a separate entry of the source. Some results are limits rather than exact numbers.

The values below come from patent publication US20200024299A1, “CRYSTALLINE FORMS OF A BILE ACID DERIVATIVE” (Intercept Pharmaceuticals, Inc., priority 2016, published 2020).

Common to all, as to assay type: physicochemical
Series [1] in a line: Storage stability at controlled temperature / relative humidity.
Series [2] can be described thus: Gravimetric Vapor Sorption (GVS), hygroscopicity. Here is the method: Sorption isotherms were obtained using a SMS DVS Intrinsic moisture sorption analyzer, controlled by DVS Intrinsic Control software v1.0.1.2 (or v 1.0.1.3). The sample temperature was maintained at 25° C. by the instrument controls. The humidity was controlled by mixing streams of dry and wet nitrogen, with a total flow rate of 200 mL/min. The relative humidity was measured by a calibrated Rotronic probe (dynamic range of 1.0-100% RH), located near the sample. The weight change, (mass relaxation) of the sample as a function of % RH was constantly monitored by the microbalance (accuracy ±0.005 mg).
Typically, 5-20 mg of sample was placed in a tared mesh stainless steel basket under ambient conditions. The sample was loaded and unloaded at 40% RH and 25° C. (typical room conditions). A moisture sorption isotherm was performed as outlined below (2 scans giving 1 complete cycle). The standard isotherm was performed at 25° C. at 10% RH intervals over a 0-90% RH range. Data analysis was carried out using Microsoft Excel using DVS Analysis Suite v6.2 (or 6.1 or 6.0).

Series [3] can be described thus: Aqueous solubility at 25° C. The note with it: water.
The nature of series [4]: Variable Temperature XRPD (physical stability on heating). The note with it: upon heating. On the procedure: X-Ray Powder Diffraction patterns were collected on a Bruker AXS C2 GADDS diffractometer using Cu Kα radiation (40 kV, 40 mA), automated XYZ stage, laser video microscope for auto-sample positioning and a HiStar 2-dimensional area detector. X-ray optics consists of a single Gobel multilayer mirror coupled with a pinhole collimator of 0.3 mm. A weekly performance check is carried out using a certified standard NIST 1976 Corundum (flat plate).
The beam divergence, i.e., the effective size of the X-ray beam on the sample, was approximately 4 mm. A 0-0 (theta-theta) continuous scan mode was employed with a sample—detector distance of 20 cm which gives an effective 20 (theta) range of 3.2°-29.7°. Typically, the sample would be exposed to the X-ray beam for 120 seconds. The software used for data collection was GADDS for XP/2000 4.1.43 and the data were analyzed and presented using Diffrac Plus EVA v15.0.0.0.
Samples run under non-ambient conditions were mounted on a silicon wafer with heat-conducting compound. The sample was then heated to the appropriate temperature at 20° C./min and subsequently held isothermally for 1 minute before data collection was initiated.

Where [5] appears, read: listed as Amorphous Form of Compound 1-Na.

With `CC[C@H]1[C@@H](O)C2C3CC[C@H]([C@H](C)CCOS(=O)(=O)[O-])[C@@]3(C)CCC2[C@@]2(C)CC[C@@H](O)C[C@@H]12.[Na+]` (stereo partly drawn) [6α-ethyl-3α,7α,23-trihydroxy-24-nor-5β-cholan-23-sulphate sodium], in series [1] (12 days, 25° C./60% RH), the “12 days Storage @ 25° C./60% RH” value is on record as “Unchanged”. In addition, in series [1] (12 days, 40° C./60% RH), the “12 days Storage @ 40° C./60% RH” value is recorded as “Unchanged”. The “GVS water uptake from 40% to 60% RH” value in series [2] (40% to 60% RH) is 2.6% w/w of water uptake from 40% to 60% RH. The “XRPD post GVS” value in series [2] (after GVS) is on record as “Unchanged”. In addition, the “GVS hysteresis (process reversible)” value in series [2] (sorption/desorption) was approximately 1% w/w. In series [2] (whole GVS cycle), the “GVS total water uptake” value was “Total of 8% w/w water uptake”.

Regarding `CC[C@H]1[C@@H](O)C2C3CC[C@H]([C@H](C)CCOS(=O)(=O)[O-])[C@@]3(C)CCC2[C@@]2(C)CC[C@@H](O)C[C@@H]12.[Na+]` (stereo partly drawn) [Amorphous Compound 1-Na, 6α-ethyl-3α,7α,23-trihydroxy-24-nor-5β-cholan-23-sulphate sodium], in series [3], the “Aqueous Solubility (25° C.)” value is reported as more than 200 mg/mL. In addition, in series [3], the solubility is more than 200 mg/mL. Besides, the “Storage @ 25° C./60% RH” value is on record as “Unchanged for at least 1 month” in series [1] (25° C./60% RH) and “physically stable for at least 1 month” in series [1] (25° C./60% RH, listed as Amorphous Form of Compound 1-Na). Besides, the results for the “Storage @ 25° C./97% RH” value in series [1] and in series [1] (setting [5]) were “Deliquesced in less than days” and “deliquescent”, respectively. Moreover, the “Storage @ 40° C./75% RH” value in series [1] is listed as “Deliquesced in less than 3 days”; in series [1] (setting [5]) it was “deliquescent”.

For `CC[C@H]1[C@@H](O)C2C3CC[C@H]([C@H](C)CCOS(=O)(=O)[O-])[C@@]3(C)CCC2[C@@]2(C)CC[C@@H](O)C[C@@H]12.[Na+]` (stereo partly drawn) [Form A of Compound 1-Na Formed via Suspension] [6α-ethyl-3α,7α,23-trihydroxy-24-nor-5β-cholan-23-sulphate sodium], the “Storage @ 25° C./60% RH” value in series [1] (25° C./60% RH) is recorded as “successful for at least 1 month; also recorded: Unchanged for at least 1 month”. In addition, in series [1], the “Storage @ 25° C./97% RH” value is reported as “Deliquesced in less than 3 days” and the “Storage @ 40° C./75% RH” value is “Deliquesced in less than 3 days”.

On to `CC[C@H]1[C@@H](O)C2C3CC[C@H]([C@H](C)CCOS(=O)(=O)[O-])[C@@]3(C)CCC2[C@@]2(C)CC[C@@H](O)C[C@@H]12.[Na+]` (stereo partly drawn) [Example 5, 6α-ethyl-3α,7α,23-trihydroxy-24-nor-5β-cholan-23-sulphate sodium], for which the “Storage @ 25° C./60% RH” value in series [1] (25° C./60% RH) is reported as “stable for at least one month; also recorded: Unchanged for at least 1 month”. In series [1], the “Storage @ 25° C./97% RH” value is listed as “deliquesced sample after 3 days; also recorded: Deliquesced in three days” and the “Storage @ 40° C./75% RH” value is “deliquesced sample after 3 days; also recorded: Deliquesced in three days”. In series [2] (25° C., 40% to 80% RH), the “GVS water uptake from 40% to 80% RH” value is given as 4 % w/w and the “GVS water uptake from 40% to 80% RH (equivalents of water)” value was found to be 1.1 eq. Also, in series [2] (25° C., 80% to 90% RH), the “GVS water uptake from 80% to 90% RH” value came out at 24 % w/w and the “GVS water uptake from 80% to 90% RH (equivalents of water)” value amounted to 6.6 eq. Also, the “GVS: state of sample during the analysis” value in series [2] (25° C., up to 90% RH) was “the sample deliquesced”. In addition, the “Hygroscopic profile from 40% to 80% RH” value in series [2] (40% to 80% RH) is given as “moderate hygroscopic profile”. Further, in series [2] (RH greater than 80%), the “GVS water uptake at RH greater than 80%” value came to 24%, the “GVS water uptake at RH greater than 80% (equivalents of water)” value is given as 6.6 eq and the “Hygroscopic profile at RH greater than 80%” value is on record as “very hygroscopic profile”. In addition, in series [4], the VT-XRPD entry is reported as “unchanged upon heating”.
